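Following 48 hours of exposure in 96-well plates, responses at five concentrations were used to interpolate endpoints linearly. The concentration for full growth arrest is given as TGI.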
Assays:
Test in all cases: DTP human tumour cell line panel, 48 h
[1] = tested on: CCRF-CEM leukemia
[2] = tested on: HCC-2998 colon
[3] = tested on: OVCAR-3 ovarian
[4] = tested on: ACHN renal
[5] = tested on: TK-10 renal
[6] = tested on: SF-268 CNS
[7] = tested on: M14 melanoma
[8] = tested on: NCI-H226 lung
[9] = tested on: UACC-257 melanoma
[10] = tested on: EKVX NSCLC
[11] = tested on: NCI-H23 lung
[12] = tested on: OVCAR-8 ovarian
[13] = tested on: NCI-H460 lung
[14] = tested on: A549 NSCLC
[15] = tested on: LOX IMVI melanoma
[16] = tested on: KM20L2 colon
[17] = tested on: KM12 colon
[18] = tested on: CAKI-1 renal
[19] = tested on: HL-60(TB) leukemia
[20] = tested on: U251 CNS
[21] = tested on: MALME-3M melanoma
[22] = tested on: MOLT-4 leukemia
[23] = tested on: SNB-75 CNS
[24] = tested on: RPMI-8226 leukemia
[25] = tested on: SN12C renal
[26] = tested on: SNB-19 CNS
[27] = tested on: SNB-78 CNS
[28] = tested on: K-562 leukemia
[29] = tested on: SW-620 colon
[30] = tested on: A498 renal
[31] = tested on: SF-539 CNS
[32] = tested on: DMS 114 small cell lung
[33] = tested on: OVCAR-4 ovarian
[34] = tested on: SK-OV-3 ovarian
[35] = tested on: HOP-92 NSCLC
[36] = tested on: UACC-62 melanoma
[37] = tested on: HT29 colon
[38] = tested on: HCT-116 colon
[39] = tested on: UO-31 renal
[40] = tested on: SK-MEL-5 melanoma
[41] = tested on: SK-MEL-2 melanoma
[42] = tested on: 786-0 renal
[43] = tested on: DMS 273 small cell lung
[44] = tested on: SK-MEL-28 melanoma
[45] = tested on: SF-295 CNS
[46] = tested on: RXF 393 renal
[47] = tested on: HCT-15 colon
[48] = tested on: COLO 205 colon
[49] = tested on: IGROV1 ovarian
[50] = tested on: DLD-1 colon
[51] = tested on: OVCAR-5 ovarian
[52] = tested on: NCI-H522 lung
[53] = tested on: HOP-62 NSCLC
[54] = tested on: LXFL 529 NSCLC
[55] = tested on: M19-MEL melanoma
[56] = tested on: HOP-18 NSCLC

SMILES: CC12CCC3(C1)[C@H](CC2=O)C[C@@H](OC(=O)c1ccccc1)C1C(C)(CO)CCC[C@@]13C (stereo partly specified)
- TGI [1]: > 54.1 µM
- TGI [2]: > 100 µM
- TGI [3]: > 52.3 µM
- TGI [4]: > 100 µM
- TGI [5]: > 100 µM
- TGI [6]: > 100 µM
- TGI [7]: > 100 µM
- TGI [8]: 65.9 µM
- TGI [9]: 23.8 µM
- TGI [10]: > 100 µM
- TGI [11]: > 100 µM
- TGI [12]: > 100 µM
- TGI [13]: > 45.8 µM
- TGI [14]: 97 µM
- TGI [15]: > 100 µM
- TGI [16]: > 100 µM
- TGI [17]: > 100 µM
- TGI [18]: > 27.2 µM
- TGI [19]: 8.38 µM
- TGI [20]: > 100 µM
- TGI [21]: > 100 µM
- TGI [22]: 19.7 µM
- TGI [23]: > 100 µM
- TGI [24]: 12 µM
- TGI [25]: > 100 µM
- TGI [26]: > 100 µM
- TGI [27]: > 100 µM
- TGI [28]: > 100 µM
- TGI [29]: > 100 µM
- TGI [30]: > 100 µM
- TGI [31]: > 100 µM
- TGI [32]: 19.5 µM
- TGI [33]: > 72.1 µM
- TGI [34]: > 89.1 µM
- TGI [35]: 58.3 µM
- TGI [36]: > 89 µM
- TGI [37]: > 100 µM
- TGI [38]: > 100 µM
- TGI [39]: 61.7 µM
- TGI [40]: 1.71 µM
- TGI [41]: > 90.8 µM
- TGI [42]: > 100 µM
- TGI [43]: 13.3 µM
- TGI [44]: > 100 µM
- TGI [45]: > 38.9 µM
- TGI [46]: 47.6 µM
- TGI [47]: > 100 µM
- TGI [48]: 27.1 µM
- TGI [49]: > 100 µM
- TGI [50]: > 100 µM
- TGI [51]: 95.7 µM
- TGI [52]: 17.9 µM
- TGI [53]: > 100 µM
- TGI [54]: > 100 µM
- TGI [55]: > 100 µM
- TGI [56]: > 100 µM

Source: PubChem BioAssay (NCI)
